Data on 1 compound can be found in patent publication US20100056596A1, “RESISTANCE-REPELLENT RETROVIRAL PROTEASE INHIBITORS” (Sequoia Pharmaceuticals, priority 2004, published 2010).

The structures appear in SMILES notation. pIC50, pKi: −log10 of the molar value.

For one assay, the target named is T1, wild type HIV-1 protease (Human immunodeficiency virus type 1 group M subtype B, UniProt P04585).
T1 construct: over 45 of the 99 amino acids of the HIV protease monomer
In words: Ki against wild type (WT) HIV-1 protease. The format is biochemical. As to conditions: wild type HIV-1 protease.

The target of another assay is HIV-1 protease Mutant 8 (Human immunodeficiency virus type 1, UniProt P04585). The assay can be described thus: Ki against HIV-1 protease Mutant 8. The format is biochemical. As to conditions: HIV-1 protease Mutant 8.
Another assay addresses HIV-1 protease Mutant 9 (Human immunodeficiency virus type 1, UniProt P04585). The assay can be described thus: Ki against HIV-1 protease Mutant 9. The format is biochemical. As to conditions: HIV-1 protease Mutant 9.
The test system of the next assay is HIV-1 isolates, WT. The assay can be described thus: In vitro drug sensitivity of HIV-1 laboratory isolates, WT. As to conditions: Human immunodeficiency virus 1; HIV-1 isolate WT. The format is cell-based. As for the experimental part:
(§1) In Vitro Drug Sensitivity of HIV-1 Laboratory Isolates to PIs
(§2) The sensitivities of HIV-1 isolates against compounds of the invention were determined as previously described with minor modifications (Shiraska et al., Proc. Natl. Acad. Sci. USA, 92, 2398-2402 (1995)).

The subject of the next assay is HIV-1 isolates, Mutant 8. The assay can be described thus: In vitro drug sensitivity of HIV-1 laboratory isolates, Mutant 8. The format is cell-based. As to conditions: Human immunodeficiency virus 1, read-out: IC50 Mutant 8. As for the experimental part:
as §1, §2

The next assay has as its system HIV-1 isolates, Mutant 9. The assay can be described thus: In vitro drug sensitivity of HIV-1 laboratory isolates, Mutant 9. The format is cell-based. As to conditions: Human immunodeficiency virus 1, read-out: IC50 Mutant 9. As for the experimental part:
as §1, §2

The pKi is −log10 of the Ki, conventionally taken in molar units. For orientation: pIC50 means −log10 of the IC50, conventionally taken in molar units. Turning to `CC(C)CN(CC(O)C(Cc1ccccc1)NC(=O)OC1COC2OCCC12)S(=O)(=O)c1ccc2onc(CNC(=O)C(C)C)c2c1` (stereo not drawn) [Compound 220], the pKi on wild type HIV-1 protease was > 10.00; on HIV-1 protease Mutant 8, > 9.52; on HIV-1 protease Mutant 9 it was 9.85. Also, the negative-log IC50 (pIC50) with HIV-1 isolates, WT is 8.15; with HIV-1 isolates, Mutant 8, 7.92; in the assay with HIV-1 isolates, Mutant 9, 7.22.
